Data taken from patent US20220009918A1, “Chemical Compounds” (GlaxoSmithKline Intellectual Property Development Limited, priority 2018, published 2022).

Target: T1, human H-PGDS (Homo sapiens, UniProt O60760)
T1 construct: Full length human H-PGDS cDNA (Invitrogen Ultimate ORF IOH13026) was amplified by PCR; 6-His (N); TEV protease cleavage site (N); made in house; host or cells: E. coli BL21 (DE3*) for H-PGDS; Sf9 insect cells (baculovirus) for COX-2
Assay: H-PGDS RapidFire high throughput mass spectrometry assay
Type: biochemical
Details: inhibition of conversion of PGH2 to PGD2 by H-PGDS; mean pIC50; read-out: Potency Range (mean pIC50) (converted)
Procedure, shortened: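 Full-length His-tagged human H-PGDS from E. coli converted PGH2, generated in situ (~10 μM burst) from arachidonic acid by FLAG-tagged human COX-2 (Sf9-expressed). PGD2 and PGF2α (substrate surrogate) were measured by RapidFire SPE-triple quadrupole MS. Percent conversion was calculated, and inhibition was taken as reduced conversion.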

T1 sequence (O60760 whole entry): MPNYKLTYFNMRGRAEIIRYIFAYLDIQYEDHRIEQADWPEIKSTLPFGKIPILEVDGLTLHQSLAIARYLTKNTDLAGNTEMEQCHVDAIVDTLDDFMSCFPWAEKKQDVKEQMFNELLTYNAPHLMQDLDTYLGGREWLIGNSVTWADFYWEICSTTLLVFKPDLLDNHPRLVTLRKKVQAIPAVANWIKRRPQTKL

SMILES: O=C1NCC[C@@H]1NS(=O)(=O)c1cnc(-c2ccccc2)s1 [Example 86, (S)-N-(2-Oxopyrrolidin-3-yl)-2-phenylthiazole-5-sulfonamide]
- IC50: > 10 µM
